Experimental data as given in patent US8609731B2, “Substituted tetrahydronaphthalenes, process for the preparation thereof and the use thereof as medicaments” (SANOFI, priority 2007, dated 2013).
≈ marks a conversion by molar mass, not a printed value.

Key:
physchem = format: physicochemical; details: pH 7.4, aqueous buffer, kinetic from dmso stock
Description: A DMSO solution of the test compound (2.5 mM; 0.5 μl) is pipetted into 200 μl of an aqueous test solution (e.g. phosphate-buffered saline, 10×, 1M, Sigma, adjusted to 10 mM, pH 7.4) in a 96-well microtiter plate, and the turbidity is measured at the resulting theoretical concentration for the test compound of 6.25 μM using a nephelometer (e.g. Nephelostar Galaxy, BMG Labtech). The concentration of the test compound in the aqueous test solution is then raised to a theoretical 12.5 μM by adding further DMSO solution (2.5 mM; 0.5 μl), and the turbidity measurement is repeated. Further additions of DMSO solutions (1 μl, 2.5 mM; 0.5 μl, 10 mM; then 9×1 μl, 10 mM resulting in theoretical concentrations of 25 μM, 50 μM, 100 μM, 150 μM, 200 μM, 250 μM, 300 μM, 350 μM, 400 μM, 450 μM and 500 μM) with turbidity measurement in between complete the measurement process.
Evaluation: The turbidity values from the nephelometer are plotted against the theoretical concentration of the test compound in the aqueous test solution. As soon as a significant turbidity is detected (e.g. 5 times above the control value of the aqueous test solution) at a theoretical concentration, the level of concentration below this is stated to be the solubility limit of the test compound in the test solution. Thus, the maximum possible measurement range emerges as values <6.25 μM, 6.25−500 μM and >500 μM.

human MCH receptor = target: T1, human MCH receptor (Homo sapiens, UniProt Q99705); experiment: calcium mobilization assay (FLIPR); functional IC50 of MCH1R antagonists; format: cell-based; details: recombinant HEK293 cell line expressing human MCH receptor; calcium flux after addition of agonist MCH
T1 construct: expressed in transfected cells
T1 sequence (Q99705 whole entry): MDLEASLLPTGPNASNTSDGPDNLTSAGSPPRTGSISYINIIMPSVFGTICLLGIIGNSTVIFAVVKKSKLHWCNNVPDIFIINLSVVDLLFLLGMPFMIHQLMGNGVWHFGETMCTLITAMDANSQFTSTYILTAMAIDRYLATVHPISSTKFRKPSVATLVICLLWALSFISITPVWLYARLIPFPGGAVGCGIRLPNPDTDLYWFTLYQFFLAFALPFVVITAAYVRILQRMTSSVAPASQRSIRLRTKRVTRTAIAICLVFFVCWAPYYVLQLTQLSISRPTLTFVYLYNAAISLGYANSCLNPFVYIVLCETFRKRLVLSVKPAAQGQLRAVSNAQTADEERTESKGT
From the text: Influence on the MCH Receptor In Vitro; Determination of Functional IC50 Values of MCH1R Antagonists
Cloning of the cDNA for the human MCH receptor, preparation of a recombinant HEK293 cell line which expresses the human MCH receptor, and functional measurements with the recombinant cell line took place in analogy to the description by Audinot et al. (J. Biol. Chem. 2001, 276, 13554-13562). A difference from the reference was, however, the use of the plasmid pEAK8 from EDGE Biosystems (USA) for the construction of the expression vector. The host used for the transfection was a transformed HEK cell line named “PEAK Stable Cells” (likewise from EDGE Biosystems). Functional measurements of the cellular calcium flux after addition of agonist (MCH) in the presence of ligand of the invention took place with the aid of the FLIPR apparatus from Molecular Devices (USA), using protocols of the apparatus manufacturer. The compounds of the invention show a significant inhibition (>30%) of the signal induced by the agonist at a concentration of 100 μM, preferably at 10 μM, particularly preferably at 1 μM, very particularly preferably at 100 nM and very very particularly preferably at 10 nM.

hERG channel = target: T2, hERG channel (Homo sapiens, UniProt Q12809); experiment: hERG channel blockade, whole-cell patch clamp in CHO cells expressing hERG; format: cell-based; details: CHO cells with stable hERG expression, room temperature, read-out: hERG Inh. IC50
T2 construct: expressed in transfected cells; host or cells: CHO cells (ATCC), pcDNA3 vector, G418 selection
T2 sequence (Q12809 whole entry): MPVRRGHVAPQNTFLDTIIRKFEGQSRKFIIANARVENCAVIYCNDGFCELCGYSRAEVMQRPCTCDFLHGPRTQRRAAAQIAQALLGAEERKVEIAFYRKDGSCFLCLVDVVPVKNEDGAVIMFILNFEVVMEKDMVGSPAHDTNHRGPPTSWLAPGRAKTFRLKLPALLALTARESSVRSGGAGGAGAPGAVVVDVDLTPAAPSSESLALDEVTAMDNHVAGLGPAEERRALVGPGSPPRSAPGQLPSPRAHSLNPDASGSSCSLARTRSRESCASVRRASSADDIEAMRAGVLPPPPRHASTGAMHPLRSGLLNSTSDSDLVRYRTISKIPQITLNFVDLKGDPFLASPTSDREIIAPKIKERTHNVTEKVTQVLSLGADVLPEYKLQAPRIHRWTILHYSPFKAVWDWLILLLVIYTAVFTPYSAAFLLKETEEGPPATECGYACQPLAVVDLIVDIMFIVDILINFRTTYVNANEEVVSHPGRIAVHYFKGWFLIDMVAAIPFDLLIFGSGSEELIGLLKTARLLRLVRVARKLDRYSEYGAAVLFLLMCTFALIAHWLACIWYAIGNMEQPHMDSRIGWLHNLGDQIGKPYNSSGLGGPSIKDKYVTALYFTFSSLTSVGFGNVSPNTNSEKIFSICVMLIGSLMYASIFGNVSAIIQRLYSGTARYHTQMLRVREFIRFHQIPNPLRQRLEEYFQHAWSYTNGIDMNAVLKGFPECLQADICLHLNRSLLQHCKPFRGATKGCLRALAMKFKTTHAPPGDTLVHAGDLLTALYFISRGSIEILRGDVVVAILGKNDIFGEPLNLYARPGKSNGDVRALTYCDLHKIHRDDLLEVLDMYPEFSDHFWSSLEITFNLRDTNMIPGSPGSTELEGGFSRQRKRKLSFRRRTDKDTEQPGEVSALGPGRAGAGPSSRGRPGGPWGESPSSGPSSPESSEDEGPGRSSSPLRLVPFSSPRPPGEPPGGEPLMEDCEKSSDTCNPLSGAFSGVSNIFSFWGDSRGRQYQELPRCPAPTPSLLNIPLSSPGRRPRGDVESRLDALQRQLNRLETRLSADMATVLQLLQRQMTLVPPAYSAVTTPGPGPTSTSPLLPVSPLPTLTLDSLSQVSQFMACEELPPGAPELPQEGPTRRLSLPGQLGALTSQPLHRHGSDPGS
From the text: The aim of the test is to determine the concentration range in which the test compound blocks the cardiac hERG channel. Blockade of the hERG channel, which is responsible for the Ikr current in the human heart, is associated with potentially fatal arrhythmias.
For expression of the cDNA encoding the hERG channel it was cloned into the pcDNA3 vector (Invitrogen). Chinese hamster […] (CHO, American Type Culture Collection, Rockville, Md.) were transfected using lipofectamine (GIBCO/BRL, Grand Island, N.Y.) with the hERG cDNA and selected using G418 (GIBCO/BRL, Grand Island, N.Y.; 500 μg/ml). CHO cells with stable expression of the hERG channel were cultured on a HAM F-12 medium which was supplemented with 10% native bovine serum, 1× penicillin/streptomycin and 500 μg/ml G418 in an atmosphere of 95% air/5% carbon dioxide.
The cells selected for the patch clamp experiment are seeded on a plastic support 18-24 hours before the experiment. HERG channel currents are recorded at room temperature by the whole-cell variant of the patch clamp technique using an Axopatch 200B amplifier (Axon Instruments, Foster City, Calif.). The electrodes (3-6 megaohms resistance) are prepared from TW150F glass capillaries (World Precision Instruments, Sarasota, Fla.) and filled with the pipette solution (120 mM potassium aspartate, 20 mM KCl, 4 mM Na2ATP, 5 mM HEPES, 1 mM MgCl2; adjusted to pH 7.2 with KOH). The hERG channel currents are induced by a positive voltage pulse (20 mV) followed by a negative pulse (−40 mV) and are recorded for later analysis. As soon as the hERG channel current of the cell flushed with the control solution ([…], 5 mM KCl, 2.8 mM NaOAc, 1 mM MgCl2, 10 mM HEPES; 10 mM glucose, 1 mM CaCl2; adjusted to pH 7.4 with NaOH) is stable, the cell is perfused with the test compound dissolved in the above control solution (by dilution of a 10 or 100 mM DMSO solution of the test compound so that the DMSO content is no more than 0.1%). The current is followed continuously until no further changes occur. The same procedure is repeated with increasing concentrations of the test compound. The maximum amplitude of the hERG current is measured in picoAmperes (pA) for each concentration and for each cell. The maximum amplitude in pA for each concentration of the test compound is compared with that of the pure control solution in the same cell and calculated as % of the control value.
Evaluation: The test compound is tested at various concentrations in 3-5 CHO cells which express the hERG channel. The IC50 is obtained by use of nonlinear least squares regression (GraphPAD Software, San Diego, Calif.).

| SMILES | solubility kinetic (physchem) [µM] | IC50 (human MCH receptor) [nM] | IC50 (hERG channel) [nM] |
| --- | --- | --- | --- |
| O=C(N[C@H]1CCc2cc(CN3CCCC3)ccc2C1)c1ccc(OC[C@@H]2CCCO2)cc1 [Example 1, N-((S)-6-Pyrrolidin-1-ylmethyl-1,2,3,4-tetrahydronaphthalen-2-yl)-4-[(S)-1-(tetrahydrofuran-2-yl)methoxy]benzamide] | > 500 | 90 | > 30000 |
| CC(C)(C)CNCc1ccc2c(c1)CC[C@H](NC(=O)c1ccc(OC[C@@H]3CCCO3)cc1)C2 [Example 3-34] | 50 (≈ 22.5 µg/mL) | 100 | > 30000 |
| O=C(N[C@H]1CCc2cc(CN3CC4CCC3C4)ccc2C1)c1ccc(OC[C@@H]2CCCO2)cc1 (some centres unmarked) [Example 3-83] | > 500 | – | > 30000 |
| CC1(C)CCN(Cc2ccc3c(c2)CC[C@H](NC(=O)c2ccc(OC[C@@H]4CCCO4)cc2)C3)CC1 [Example 3-166] | 450 (≈ 214 µg/mL) | 110 | > 10000 |
| COC1CCN(Cc2ccc3c(c2)CC[C@H](N2CCc4cc(OC[C@@H]5CCCO5)ccc4C2=O)C3)CC1 [Example 14, 2-[(S)-6-(4-Methoxypiperidin-1-ylmethyl)-1,2,3,4-tetrahydronaphthalen-2-yl]-6-[(S)-1-(tetrahydrofuran-2-yl)methoxy]-3,4-dihydro-2H-isoquinolin-1-one] | > 500 | 630 | > 10000 |
